In US6828327B2, “Macroheterocylic compounds useful as kinase inhibitors” (Ortho-McNeil Pharmaceutical, Inc., priority 2000, dated 2004):

Experiments:
Type in all cases: biochemical
PKC α = PKC α (Homo sapiens, UniProt P17252); experiment: Biotinylated Peptide Substrate Assay, PKC α; details: 10 μM ATP; >10 = no 50% inhibition at highest dose tested
Experimental: Biotinylated peptide substrates were selected from the literature as appropriate for the enzyme being evaluated.
Assay conditions vary slightly for each protein kinase, for example, insulin receptor kinase requires 10 mM MnCl2 for activity and Calmodulin-dependent protein kinase requires calmodulin and 10 mM CaCl2. […] Enzyme was diluted in 50 mM Tris-HCl pH=8.0, 0.1% BSA and added to each well. The reaction was incubated for one hour at 30° C. in the presence of compound. After one hour the reaction mix was aspirated from the plate and the plate was washed with PBS containing 100 mM EDTA. The plate was read on a scintillation counter to determine ^33P-γ-ATP incorporated into the immobilized peptide. […] A maximum and minimum signal for the assay was determined on each plate.

PKC-γ = target: T1, PKC-γ (Homo sapiens, UniProt P05129); experiment: Protein Kinase C Scintillation Proximity Assay (SPA), PKC-γ; details: inhibition value, recombinant human isozyme, 1 μM ATP
T1 construct: purchased PanVera, Madison Wis; host or cells: baculovirus expression vector
Experimental: (§1) The binding activity of a compound for Protein Kinase C (PKC) was assessed using a homogeneous Scintillation Proximity Assay according to the procedure below.
(§2) The different human PKC isozymes (were obtained from PanVera, Madison Wis. and had been prepared as recombinant enzymes produced from a baculovirus expression vector) were added to a reaction mixture containing a test compound, 20 mM HEPES (pH 7.4), 100 μM CaCl2, 10 mM MgCl2, 100 μg/mL phosphatidylserine, 20 μg/mL diacylglycerol, 1 μM ATP, 0.8 μCi (^33P)ATP, and 5 μg/mL biotinylated substrate peptide (Jing Zhao et al., J. Bio. Chem., 1998, 273, 23072). The reaction was incubated for 15 min at 30° C. Reactions were terminated by the addition of streptavidin-coated SPA beads (Amersham) in a solution containing 1 mM EGTA, 10 mM EDTA and 100 μM ATP. Beads were allowed to settle overnight and the plates read in a Wallac MICROBETA scintillation counter (PerkinElmer Life sciences, Wellesley, Mass.).
(§3) Values for inhibition of various PKC isozymes and GSK 3-β by certain compounds of the invention tested in the PKC SPA and GSK 3-β assays are shown in Table 1.

PKC-βI = target: T2, PKC-βI (Homo sapiens, UniProt P05771); experiment: Protein Kinase C Scintillation Proximity Assay (SPA), PKC-βI; details: inhibition value, recombinant human isozyme, 1 μM ATP
T2 construct: purchased PanVera, Madison Wis; host or cells: baculovirus expression vector
Experimental: as §1, §2, §3

VEGF-R = target: T3, VEGF-R (Rattus norvegicus, UniProt O08775); experiment: Biotinylated Peptide Substrate Assay, VEGF-R; details: read-out: VEGF-R Kinase Assay (IC50 uM)
T3 construct: polyhistidine (N)
Experimental: Assays to test inhibition of a compound for other kinases were preformed using methods that measure the amount of phosphorylation of a biotinylated peptide substrate. Biotinylated peptide substrates were selected from the literature as appropriate for the enzyme being evaluated.
A kinase reaction mix was prepared in 50 mM Tris-HCl pH=8, 10 mM MgCl2, 0.1 mM Na3VO4, 1 mM DTT, 10 μM ATP, 0.25-1 μM biotinylated peptide substrate, 0.2-0.8 μCuries per well ^33P-γ-ATP (2000-3000 Ci/mmol). Assay conditions vary slightly for each protein kinase, for example, insulin receptor kinase requires 10 mM MnCl2 for activity and Calmodulin-dependent protein kinase requires calmodulin and 10 mM CaCl2. The reaction mixture was dispensed into the wells of a streptavidin coated Flashplate and 1 μL drug stock in 100% DMSO was added to a 100 μL reaction volume resulting in a final concentration of 1% DMSO in the reaction. Enzyme was diluted in 50 mM Tris-HCl pH=8.0, 0.1% BSA and added to each well. The reaction was incubated for one hour at 30° C. in the presence of compound. After one hour the reaction mix was aspirated from the plate and the plate was washed with PBS containing 100 mM EDTA. The plate was read on a scintillation counter to determine ^33P-γ-ATP incorporated into the immobilized peptide. Test compounds were assayed in duplicate at 8 concentrations (100 uM, 10 uM, 1 uM, 100 nM, 10 nM, 1 nM, 100 pM, 10 pM). A maximum and minimum signal for the assay was determined on each plate.
The IC50 was calculated from the dose response curve of the percent inhibition of the maximum signal in the assay according to the formula:
% Inhibition=((MS−BS)/(TCS−BS))×100%
where MS=Maximum Signal, BS=Background Signal, TCS=Test Compound Signal. The percent inhibition was graphed against the log concentration of the test compound. Known inhibitor compounds as appropriate references for the kinase being assayed were also included on each plate.
VEGF-R (vascular endothelial growth factor receptor-2) is a fusion protein containing a polyhistidine tag at the N-terminus followed by amino acids 786-1343 of the rat VEGF-R2 kinase domain (GenBank Accession #U93306). Protein Kinase A is the catalytic subunit of cAMP dependent protein kinase-A purified from bovine heart (Upstate Biotech, Lake Placid, N.Y., Cat#14-114). CDK1 (cyclin dependent kinase 1) is isolated from insect cells expressing both the human CDK1 catalytic subunit and its positive regulatory subunit cyclin B (New England Biolabs, Beverly, Mass., Cat. #6020). Casein Kinase-1 is a protein truncation at amino acid 318 of the C-terminal portion of the rat CK1 delta isoform produced in E.coli (New England Biolabs, Beverly, Mass., Cat. #6030). […]

PKC-βII = target: T4, PKC-βII (Homo sapiens, UniProt P05771); experiment: Protein Kinase C Scintillation Proximity Assay (SPA), PKC-βII; details: inhibition value, recombinant human isozyme, 1 μM ATP
T4 construct: purchased PanVera, Madison Wis; host or cells: baculovirus expression vector
Experimental: as §1, §2, §3

T4 sequence (P05771 1-673 isoform P05771-2): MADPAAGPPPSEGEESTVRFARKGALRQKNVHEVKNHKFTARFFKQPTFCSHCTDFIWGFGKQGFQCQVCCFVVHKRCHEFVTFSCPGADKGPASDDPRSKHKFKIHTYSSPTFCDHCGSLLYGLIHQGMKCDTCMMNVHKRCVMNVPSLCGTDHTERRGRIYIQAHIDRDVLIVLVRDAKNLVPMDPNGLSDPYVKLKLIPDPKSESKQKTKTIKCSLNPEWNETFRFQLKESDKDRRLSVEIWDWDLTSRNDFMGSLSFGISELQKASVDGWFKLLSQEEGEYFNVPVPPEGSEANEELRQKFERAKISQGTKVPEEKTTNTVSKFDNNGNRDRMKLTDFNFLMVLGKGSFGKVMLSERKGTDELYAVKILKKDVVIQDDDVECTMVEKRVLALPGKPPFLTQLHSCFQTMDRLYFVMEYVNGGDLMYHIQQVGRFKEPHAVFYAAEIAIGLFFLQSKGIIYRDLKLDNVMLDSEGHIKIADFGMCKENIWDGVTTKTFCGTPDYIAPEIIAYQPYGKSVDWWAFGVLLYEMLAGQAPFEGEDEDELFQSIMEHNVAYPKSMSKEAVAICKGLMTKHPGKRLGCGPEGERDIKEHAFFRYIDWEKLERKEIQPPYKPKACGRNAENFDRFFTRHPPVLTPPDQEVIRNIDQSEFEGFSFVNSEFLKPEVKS
T2 sequence (P05771 whole entry): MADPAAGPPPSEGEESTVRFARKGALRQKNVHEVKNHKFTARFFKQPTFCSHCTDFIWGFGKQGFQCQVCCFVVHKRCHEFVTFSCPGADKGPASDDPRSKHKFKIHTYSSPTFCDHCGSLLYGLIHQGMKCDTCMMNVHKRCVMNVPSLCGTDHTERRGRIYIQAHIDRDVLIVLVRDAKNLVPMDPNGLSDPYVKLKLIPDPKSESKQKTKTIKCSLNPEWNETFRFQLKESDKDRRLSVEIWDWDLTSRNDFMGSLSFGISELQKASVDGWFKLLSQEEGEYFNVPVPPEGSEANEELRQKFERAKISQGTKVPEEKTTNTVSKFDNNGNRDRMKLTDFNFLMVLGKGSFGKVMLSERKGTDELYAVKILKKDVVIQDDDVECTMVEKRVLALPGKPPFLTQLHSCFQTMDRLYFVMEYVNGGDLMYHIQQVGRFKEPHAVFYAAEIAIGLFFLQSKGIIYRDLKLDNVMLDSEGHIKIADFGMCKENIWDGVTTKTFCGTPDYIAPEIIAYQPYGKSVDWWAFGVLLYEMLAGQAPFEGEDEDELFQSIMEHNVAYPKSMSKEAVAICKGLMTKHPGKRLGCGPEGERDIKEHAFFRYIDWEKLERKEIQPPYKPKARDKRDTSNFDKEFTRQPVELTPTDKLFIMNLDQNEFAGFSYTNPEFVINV
T3 sequence (O08775 786-1343): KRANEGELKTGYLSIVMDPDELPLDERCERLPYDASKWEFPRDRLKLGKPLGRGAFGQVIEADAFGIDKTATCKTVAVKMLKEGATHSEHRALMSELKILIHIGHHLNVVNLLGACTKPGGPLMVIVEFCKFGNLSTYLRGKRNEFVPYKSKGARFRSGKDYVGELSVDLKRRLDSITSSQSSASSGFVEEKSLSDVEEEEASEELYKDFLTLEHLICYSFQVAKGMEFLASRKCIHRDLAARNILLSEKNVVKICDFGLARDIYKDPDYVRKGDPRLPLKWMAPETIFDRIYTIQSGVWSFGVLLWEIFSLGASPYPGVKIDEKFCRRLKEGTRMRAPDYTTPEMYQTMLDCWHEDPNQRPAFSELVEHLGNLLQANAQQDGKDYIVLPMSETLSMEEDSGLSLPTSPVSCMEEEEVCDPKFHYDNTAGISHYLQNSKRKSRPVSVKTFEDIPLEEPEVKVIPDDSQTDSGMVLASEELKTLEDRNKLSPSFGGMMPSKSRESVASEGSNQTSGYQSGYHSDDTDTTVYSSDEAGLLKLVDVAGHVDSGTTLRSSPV

Row | PKC α Kinase Assay (IC50 uM) (PKC α) [µM] | IC50 (PKC-γ) [µM] | IC50 (PKC-βI) [µM] | IC50 (VEGF-R) [µM] | IC50 (PKC-βII) [µM] | SMILES
1 | >10 | 2.85 | 1.06 | 0.889 | 0.072 | O=C1NC(=O)C2=C1c1cn(c3ccccc13)CCOCCOCCOCCn1cc2c2cccnc21 [Cpd 11]
2 | >10 | 7.8 | 5.15 | 1.2 | 0.519 | O=C1NC(=O)C2=C1c1cn(c3ccccc13)CCOCCOCCn1cc2c2cccnc21 [Cpd 10]
3 |  | 38.7 | 18.5 | > 10 | 2.41 | O=C1NC(=O)C2=C1c1cn(c3ncccc13)CCOCCOCCOCCn1cc2c2cccnc21 [Cpd 1]
4 |  | > 100 | > 100 | > 10 | > 100 | O=C1NC(=O)C2=C1c1cn(c3ncccc13)CCOCCOCCOCCOCCn1cc2c2cccnc21 [Cpd 2]
